In ChEMBL document CHEMBL2073803, “Role of MDR1 and MRP1 in trophoblast cells, elucidated using retroviral gene transfer” (Am J Physiol Cell Physiol, 2003) one finds Activity data, which are given here for one molecule.

The target in this data set is ATP-dependent translocase ABCB1 (Homo sapiens, UniProt P08183). Briefly: TP_TRANSPORTER: efflux in MDR1-expressing BeWo cells. The data set is classed as functional, cell-based.
Sequence of ATP-dependent translocase ABCB1 (P08183 whole entry): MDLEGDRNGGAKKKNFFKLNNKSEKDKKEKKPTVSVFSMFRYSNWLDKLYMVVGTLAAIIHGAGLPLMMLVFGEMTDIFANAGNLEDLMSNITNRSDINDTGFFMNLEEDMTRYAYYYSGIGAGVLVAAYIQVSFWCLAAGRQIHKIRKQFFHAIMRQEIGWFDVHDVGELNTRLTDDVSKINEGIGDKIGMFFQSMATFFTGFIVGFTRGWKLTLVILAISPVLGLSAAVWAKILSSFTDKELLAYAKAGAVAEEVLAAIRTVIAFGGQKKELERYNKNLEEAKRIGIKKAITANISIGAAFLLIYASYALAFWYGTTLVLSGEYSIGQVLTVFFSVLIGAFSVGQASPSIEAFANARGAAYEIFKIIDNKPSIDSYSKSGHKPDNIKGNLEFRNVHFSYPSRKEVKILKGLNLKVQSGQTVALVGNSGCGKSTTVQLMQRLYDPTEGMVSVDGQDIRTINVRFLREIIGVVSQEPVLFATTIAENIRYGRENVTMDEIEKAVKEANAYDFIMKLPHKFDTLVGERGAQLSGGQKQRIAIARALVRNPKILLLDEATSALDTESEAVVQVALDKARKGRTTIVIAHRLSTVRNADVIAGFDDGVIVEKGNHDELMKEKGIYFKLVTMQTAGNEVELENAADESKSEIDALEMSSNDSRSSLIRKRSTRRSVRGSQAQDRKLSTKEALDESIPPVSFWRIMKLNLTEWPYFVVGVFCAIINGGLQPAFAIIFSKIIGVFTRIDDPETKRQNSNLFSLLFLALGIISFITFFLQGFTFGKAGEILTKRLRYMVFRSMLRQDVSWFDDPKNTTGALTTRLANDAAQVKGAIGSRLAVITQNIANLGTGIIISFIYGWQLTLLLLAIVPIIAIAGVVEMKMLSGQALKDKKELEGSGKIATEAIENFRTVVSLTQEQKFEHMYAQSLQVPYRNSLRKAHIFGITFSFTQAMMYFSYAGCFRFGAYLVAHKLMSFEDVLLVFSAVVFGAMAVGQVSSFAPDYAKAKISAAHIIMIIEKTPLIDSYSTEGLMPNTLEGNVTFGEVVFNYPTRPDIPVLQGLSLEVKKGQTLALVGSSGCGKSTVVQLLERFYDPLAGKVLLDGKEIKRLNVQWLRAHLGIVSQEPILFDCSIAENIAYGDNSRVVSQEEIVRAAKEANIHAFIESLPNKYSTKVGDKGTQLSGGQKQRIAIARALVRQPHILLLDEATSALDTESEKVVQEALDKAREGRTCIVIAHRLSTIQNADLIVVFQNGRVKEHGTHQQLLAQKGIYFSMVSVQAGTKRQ

In the case of `CC[C@]1(O)C[C@@H]2CN(CCc3c([nH]c4ccccc34)[C@@](C(=O)OC)(c3cc4c(cc3OC)N(C)[C@H]3[C@@](O)(C(=O)OC)[C@H](OC(C)=O)[C@]5(CC)C=CCN6CC[C@]43[C@@H]65)C2)C1` [VINBLASTINE], the Activity result is “substrate [+]”.
